Laboratory results taken from patent US7368424B2, “Acylated nonadepsipeptides” (AiCuris GmbH & Co. KG, priority 2003, dated 2008).
Like-named read-outs stand apart in the source and are kept apart here. *1 amine or outer side, *2 acyl side, *3 side chain or, on linkers, in order; H or OH if unused. Where a SMILES comes first, the peptide text is derived from it. Bridges are numbered along the chain shown (N, C = ends). [ ]: non-standard residue; d: D form. The star is where a group is joined. ξ: configuration not given here. Phe(3R-OH) = O=C([C@@H](N[*:1])[C@H](O[*:3])c1ccccc1)[*:2]; Asn(3S-OH) = NC(=O)[C@@H](O)[C@H](N)C(=O)O; Leu(3R-OH) = CC(C)[C@@H](O)[C@H](N)C(=O)O; d(tBuAla) = CC(C)(C)C[C@@H](N)C(=O)O; tBuAla = CC(C)(C)C[C@H](N)C(=O)O; aThr = C[C@H](O)[C@H](N)C(=O)O; ξIle = CC[C@H](C)C(N)C(=O)O; Ac6c = NC1(C(=O)O)CCCCC1; Cbz = O=C(OCc1ccccc1)*; Bn = c1ccc(C*)cc1; OtBu = CC(C)(C)O*

Key:
[1] = system: Streptococcus pneumoniae G9a; assay type: cell-based
Method: (§1) Determination of the Minimum Inhibitory Concentration (MIC):
(§2) The MIC is determined in the liquid dilution test in accordance with the NCCLS guidelines. Overnight cultures of Staphylococcus aureus 133, Enterococcus faecalis 27159, E. faecium 4147 and Streptococcus pneumoniae G9a are incubated with the desired test substances in a 1:2 dilution series. The MIC determination is carried out with a cell count of 10^5 microbes per ml in Isosensitest medium (Difco, Irvine/USA), with the exception of S. pneumoniae which is tested in BHI broth (Difco, Irvine/USA) with 10% bovine serum with a cell count of 10^6 microbes per ml. The cultures are incubated at 37° C. for 18-24 hours, S. pneumoniae in the presence of 10% CO2.
(§3) The MIC is defined as the lowest concentration of each substance at which visible bacterial growth no longer occurs. The MIC values are reported in μg/ml.

[2] = system: Staphylococcus aureus 133; assay type: cell-based
Method: as §1, §2, §3

E. faecalis ICB 27159 = assay type: cell-based, Enterococcus faecalis
Method: as §1, §2, §3

E. faecium L4001 = assay type: cell-based, Enterococcus faecium
[3] = BHI broth with 10% bovine serum, 10^6 microbes per ml, 10% CO2, 37° C., 18-24 hours
[4] = Isosensitest medium, 10^5 microbes per ml, 37° C., 18-24 hours

SMILES | MIC S. pneumoniae [1, 3] | MIC S. aureus 133 [2]; 133 | MIC E. faecalis ICB 27159 (E. faecalis ICB 27159; ICB 27159) | MIC E. faecium L4001 (E. faecium L4001; L4001) | MIC S. aureus 133 [2, 4] | MIC E. faecalis ICB 27159 (E. faecalis ICB 27159; [4]) | MIC E. faecium L4001 (E. faecium L4001; [4]) | MIC S. pneumoniae ([1]; G9a)
CC[C@H](C)C1NC(=O)[C@@H](CCCNC(=N)N)NC(=O)[C@H](CC(C)C)NC(=O)[C@H]([C@H](O)C(C)C)NC(=O)[C@@H](NC(=O)[C@H](COCc2ccccc2)NC(=O)[C@H](N)CC(C)(C)C)[C@@H](c2ccccc2)OC(=O)[C@H](CO)NC(=O)[C@H]([C@H](O)C(N)=O)NC(=O)CNC(=O)[C@H]([C@H](C)O)NC1=O.O=C(O)C(F)(F)F.O=C(O)C(F)(F)F (stereo partly drawn) [Example 99, (3-tert-Butyl-D-alanyl-O-benzyl-L-seryl)-de(1-D-leucyl-2-L-leucyl)lysobactin bistrifluoroacetate] (H-[d(tBuAla)]S(Bn)[Phe(3R-OH)][Leu(3R-OH)]L[dR][ξIle][aThr]G[Asn(3S-OH)]S; ester 3-C) | ≦0.063 μg/ml | 0.25 µg/mL | 0.063 µg/mL | 0.063 µg/mL |  |  |  | 
CC[C@H](C)C1NC(=O)[C@@H](CCCNC(=N)N)NC(=O)[C@H](CC(C)C)NC(=O)[C@H]([C@H](O)C(C)C)NC(=O)[C@@H](NC(=O)[C@H](CC(=O)OC(C)(C)C)NC(=O)[C@H](N)CC(C)(C)C)[C@@H](c2ccccc2)OC(=O)[C@H](CO)NC(=O)[C@H]([C@H](O)C(N)=O)NC(=O)CNC(=O)[C@H]([C@H](C)O)NC1=O.O=C(O)C(F)(F)F.O=C(O)C(F)(F)F (stereo partly drawn) [Example 101, (2S)-2-[(3-tert-Butyl-D-alanyl)amino]-4-tert-butoxy-4-oxobutanoyl-de(1-D-leucyl-2-L-leucyl)lysobactin bistri-fluoroacetate] (H-[d(tBuAla)]D(OtBu)[Phe(3R-OH)][Leu(3R-OH)]L[dR][ξIle][aThr]G[Asn(3S-OH)]S; ester 3-C) | 0.5 µg/mL |  |  |  | 1 µg/mL | 1 µg/mL | 1 µg/mL | 
CC[C@H](C)C1NC(=O)[C@@H](CCCNC(=N)N)NC(=O)[C@H](CC(C)C)NC(=O)[C@H]([C@H](O)C(C)C)NC(=O)[C@@H](NC(=O)[C@H](CC(C)(C)C)NC(=O)C2(N)CCCCC2)[C@@H](c2ccccc2)OC(=O)[C@H](CO)NC(=O)[C@H]([C@H](O)C(N)=O)NC(=O)CNC(=O)[C@H]([C@H](C)O)NC1=O.O=C(O)C(F)(F)F.O=C(O)C(F)(F)F (stereo partly drawn) [Example 105, N-[(1-Aminocyclohexyl)carbonyl]-(3-tert-butyl-D-alanyl)-de(1-D-leucyl-2-L-leucyl)lysobactin bistri-fluoroacetate] (H-[Ac6c][tBuAla][Phe(3R-OH)][Leu(3R-OH)]L[dR][ξIle][aThr]G[Asn(3S-OH)]S; ester 3-C) | 0.063 µg/mL |  |  |  | 0.5 µg/mL | 1 µg/mL | 0.5 µg/mL | 
CC[C@H](C)C1NC(=O)[C@@H](CCCNC(=N)N)NC(=O)[C@H](CC(C)C)NC(=O)[C@H]([C@H](O)C(C)C)NC(=O)[C@@H](NC(=O)[C@H](CCCCNC(=O)OCc2ccccc2)NC(=O)[C@H](N)CC(C)(C)C)[C@@H](c2ccccc2)OC(=O)[C@H](CO)NC(=O)[C@H]([C@H](O)C(N)=O)NC(=O)CNC(=O)[C@H]([C@H](C)O)NC1=O.O=C(O)C(F)(F)F.O=C(O)C(F)(F)F (stereo partly drawn) [Example 107, {(3-tert-Butylalanyl)-[N^6-(benzyloxycarbonyl)lysyl]}-de(1-D-leucyl-2-L-leucyl)lysobactin bistrifluoroacetate] (H-[d(tBuAla)]K(Cbz)[Phe(3R-OH)][Leu(3R-OH)]L[dR][ξIle][aThr]G[Asn(3S-OH)]S; ester 3-C) |  | 0.25 µg/mL | 1 µg/mL | 0.5 µg/mL |  |  |  | 0.25 µg/mL
